Measurements reported in US20240368163A1, “COMPOUNDS AND METHODS FOR MODULATING SPLICING” (REMIX THERAPEUTICS INC., priority 2021, published 2024).

Columns and labels:
Format in all cases: cell-based, human
MYB [1] = test: Splicing RT-qPCR assay, MYB mRNA canonical junction (CJ) and alternative junction (AJ); conditions: Homo sapiens; for AC50: increase in AJ mRNA
Procedure, shortened: (§1)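 Splicing switch read by one-step RT-qPCR of canonical and alternative exon junctions, housekeeper-normalized (GAPDH/GUSB/PPIA), 2^(−ΔΔCt) vs DMSO as percent response. Cells (A673 or K562) dosed 24 h, 11 points 3-fold from 10 uM, DMSO ≤0.25%.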

HTT [2] = test: Splicing RT-qPCR assay, HTT mRNA canonical junction (CJ) and alternative junction (AJ); conditions: Homo sapiens; for AC50: increase in AJ mRNA
Procedure, shortened: as §1

SMN2 = test: Splicing RT-qPCR panel, SMN2 canonical junction (CJ) mRNA; conditions: Homo sapiens, RT-qPCR panel, canonical junction mRNA; compound concentration having 50% response in CJ decrease; read-out: SMN2 IC50 (decrease in CJ mRNA levels)
Procedure, shortened: as §1

Target C [3] = test: Splicing RT-qPCR panel, Target C canonical junction (CJ) mRNA; conditions: Homo sapiens, RT-qPCR panel, canonical junction mRNA; compound concentration having 50% response in CJ decrease; read-out: Target C IC50 (decrease in CJ mRNA levels)
Procedure, shortened: as §1

MYB [4] = test: HiBiT protein abundance assay, MYB; conditions: Homo sapiens, K562, 24 h, Table 13A, modified K562 cells
Procedure, shortened: (§2)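 Target abundance was measured as HiBiT luminescence after 24 h compound treatment of tagged K562 cells. Responses were normalized between unmodified K562 and DMSO-treated tagged cells, and IC50 taken at the 50% level of a 4PL curve.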

HTT [5] = test: HiBiT protein abundance assay, HTT; conditions: Homo sapiens, K562, 24 h, Table 13A, modified K562 cells
Procedure, shortened: as §2

Target C [6] = test: HiBiT protein abundance assay, Target C; conditions: Homo sapiens, K562, 24 h, Table 13A, modified K562 cells
Procedure, shortened: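 Cells carrying the HiBiT knock-in were plated at 10000 cells/well, dosed with compound (10-point, 3-fold, 10 μM top final) and incubated 24 hours at 37 °C. Lytic reagent was then added and luminescence read. Percent response fed a 4PL fit for IC50.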

[7] = 24 h, decrease in CJ mRNA, A673 or K562 cells, 24 hours treatment, RT-qPCR, read-out: MYB CJ IC50
[8] = 24 h, A673 or K562 cells, 24 hours treatment, RT-qPCR
[9] = RT-qPCR panel, canonical junction mRNA, compound concentration having 50% response in CJ decrease, read-out: MYB IC50 (decrease in CJ mRNA levels)
[10] = 24 h, decrease in CJ mRNA, A673 or K562 cells, 24 hours treatment, RT-qPCR, read-out: HTT CJ IC50
[11] = RT-qPCR panel, canonical junction mRNA, compound concentration having 50% response in CJ decrease, read-out: HTT IC50 (decrease in CJ mRNA levels)

| Structure (SMILES) | IC50 (MYB [1]; [7]) [nM] | AC50 (MYB [1]; [8]) [nM] | IC50 (MYB [1]; [9]) [nM] | IC50 (HTT [2]; [10]) [nM] | AC50 (HTT [2]; [8]) [nM] | IC50 (HTT [2]; [11]) [nM] | IC50 (SMN2) [nM] | IC50 (Target C [3]) [nM] | IC50 (MYB [4]) [nM] | IC50 (HTT [5]) [nM] | IC50 (Target C [6]) [nM] |
| --- | --- | --- | --- | --- | --- | --- | --- | --- | --- | --- | --- |
| CNCC1CCN(c2ncc(-c3ccc(-c4cn[nH]c4)c4ncsc34)nn2)C1 (stereo not shown) [Compound 411, N-methyl-1-[1-[6-[4-(1H-pyrazol-4-yl)-1,3-benzothiazol-7-yl]-1,2,4-triazin-3-yl]pyrroledin-3-yl]metha-namine] | > 10000 | > 10000 | > 10000 | 1000 to 10000 | > 10000 | 1000 to 10000 | 1000 to 10000 | > 10000 | > 10000 | > 10000 | > 10000 |
| CNC1CCN(c2ncc(-c3ccc(-c4cn[nH]c4)c4ncsc34)nn2)C1 (stereo not shown) [Compound 412, N-methyl-1-[6-[4-(1H-pyrazol-4-yl)-1,3-benzothiazol-7-yl]-1,2,4-triazin-3-yl]pyrrolidin-3-amine] | > 10000 | > 10000 | > 10000 | 100 to 1000 | 1000 to 10000 | 100 to 1000 | 100 to 1000 | > 10000 | 1000 to 10000 | 1000 to 10000 | 1000 to 10000 |
| CN(C)C1CCN(c2ncc(-c3ccc(-c4cn[nH]c4)c4ncsc34)nn2)C1 (stereo not shown) [Compound 413] | 100 to 1000 | 100 to 1000 | 100 to 1000 | 100 to 1000 | 100 to 1000 | 100 to 1000 | 100 to 1000 | 100 to 1000 | 100 to 1000 | 100 to 1000 | 100 to 1000 |
| c1nc2c(-c3cn[nH]c3)ccc(-c3cnc(N4CCNC(C5CC5)C4)nn3)c2s1 (stereo not shown) [Compound 414] | 1000 to 10000 | > 10000 | 1000 to 10000 | 100 to 1000 | 100 to 1000 | 100 to 1000 | 1000 to 10000 | 1000 to 10000 | 1000 to 10000 | 100 to 1000 | 100 to 1000 |
| c1nc2c(-c3cn[nH]c3)ccc(-c3cnc(N4CCC(NC5CC5)C4)nn3)c2s1 (stereo not shown) [Compound 416, N-cyclopropyl-1-[6-[4-(1H-pyrazol-4-yl)-1,3-benzothiazol-7-yl]-1,2,4-triazin-3-yl]py-rrolidin-3-amine] | 1000 to 10000 | > 10000 | 1000 to 10000 | 1000 to 10000 | 1000 to 10000 | 1000 to 10000 | 1000 to 10000 | > 10000 | 1000 to 10000 | 1000 to 10000 | 1000 to 10000 |
| c1nc2c(-c3cn[nH]c3)ccc(-c3ccc(N4CCNC(C5CC5)C4)nn3)c2s1 (stereo not shown) [Compound 417] | 1000 to 10000 | 1000 to 10000 | 1000 to 10000 | 1000 to 10000 | > 10000 | 1000 to 10000 | 100 to 1000 | > 10000 | > 10000 | 100 to 1000 | 1000 to 10000 |
| CN(c1ncc(-c2ccc(-c3cn[nH]c3)c3ncsc23)nn1)[C@@H]1C[C@H]2CC[C@@H](C1)N2 [Compound 420] | 100 to 1000 | 100 to 1000 | 100 to 1000 | – | < 100 | < 100 | 100 to 1000 | 100 to 1000 | 100 to 1000 | < 100 | < 100 |
| CN(c1ncc(-c2ccc(-c3cn[nH]c3)c3ncsc23)nn1)C1C[C@H]2CCC[C@H](C1)N2 (stereo partly shown) [Compound 421] | 100 to 1000 | 100 to 1000 | 100 to 1000 | – | < 100 | < 100 | < 100 | < 100 | 100 to 1000 | < 100 | < 100 |
| c1nc2c(-c3cn[nH]c3)ccc(-c3cnc(N[C@@H]4C[C@H]5CC[C@@H](C4)N5)nn3)c2s1 [Compound 422] | 100 to 1000 | 1000 to 10000 | 100 to 1000 | – | 100 to 1000 | < 100 | 100 to 1000 | 100 to 1000 | 100 to 1000 | 100 to 1000 | 100 to 1000 |
| CN(c1ncc(-c2ccc(-c3cn[nH]c3)c3ncsc23)nn1)[C@H]1C[C@]2(C)CC[C@](C)(C1)N2 [Compound 424, (1S,5R)—N,1,5-trimethyl-N-[6-[4-(1H-pyrazol-4-yl)-1,3-benzothiazol-7-yl]-1,2,4-triazin-3-yl]-8-azabicyclo [3.2.1] octan-3-amine] | 100 to 1000 | 100 to 1000 | 100 to 1000 | – | < 100 | < 100 | 100 to 1000 | < 100 | 100 to 1000 | < 100 | < 100 |
| CN(c1ncc(-c2ccc(-c3cn[nH]c3)c3ncsc23)nn1)[C@@H]1C[C@]2(C)CC[C@](C)(C1)N2 [Compound 425, (1S,5R)—N,1,5-trimethyl-N-[6-[4-(1H-pyrazol-4-yl)-1,3-benzothiazol-7-yl]-1,2,4-triazin-3-yl]-8-azabicyclo [3.2.1] octan-3-amine] | 1000 to 10000 | > 10000 | 1000 to 10000 | 100 to 1000 | 100 to 1000 | 100 to 1000 | 1000 to 10000 | 100 to 1000 | 1000 to 10000 | 100 to 1000 | 100 to 1000 |
| CN(c1ncc(-c2ccc(-c3cn[nH]c3)c3ncsc23)nn1)C1CC2CCC(C1)N2 (stereo not shown) [Compound 443] | – | – | 1000 to 10000 | – | – | < 100 | 100 to 1000 | 100 to 1000 | 100 to 1000 | < 100 | < 100 |
| CN(c1ncc(-c2ccc(-c3cn[nH]c3)c3ncsc23)nn1)[C@@H]1C[C@H]2CCC[C@@H](C1)N2 [Compound 449, (1S,5R)—N-methyl-N-[6-[4-(1H-pyrazol-4-yl)-1,3-benzothiazol-7-yl]-1,2,4-triazin-3-yl]-9-azabicyclo[3.3.1]nonan-3-amine] | – | – | 100 to 1000 | – | – | < 100 | < 100 | < 100 | 100 to 1000 | < 100 | < 100 |
| c1nc2c(-c3cn[nH]c3)ccc(-c3cnc(N4CCN[C@H](C5CC5)C4)nn3)c2s1 [Compound 451] | – | – | 1000 to 10000 | – | – | 1000 to 10000 | 1000 to 10000 | 1000 to 10000 | 1000 to 10000 | 1000 to 10000 | 1000 to 10000 |
| c1cnn(-c2ccc(-c3cnc(N4CCC(NC5CC5)C4)nn3)c3cn[nH]c23)c1 (stereo not shown) [Compound 484, N-cyclopropyl-1-[6-(7-pyrazol-1-yl-1H-indazol-4-yl)-1,2,4-triazin-3-yl]pyrrolidin-3-amine] | – | – | > 10000 | – | – | 1000 to 10000 | 1000 to 10000 | > 10000 | > 10000 | 1000 to 10000 | 1000 to 10000 |
